Data published in patent US9504729B2, “Antiangiogenic small molecules and methods of use” (The United States of America, as represented by the …, priority 2009, dated 2016).

Tested on: angiogenesis genes in dermal microvascular endothelial cells
Assay: Real time RT-PCR of angiogenesis gene expression during endothelial tube formation
Type: cell-based
Settings: 1 μM SM, 24 hours

COc1ccc(CC2C(=O)NC(C)C(=O)N(C)C3Cc4ccc(cc4)Oc4cc(ccc4O)CC(C(=O)NC(C)C(=O)NC(C)C(=O)N2C)N(C)C3=O)cc1 (centres unmarked) [compound 259969]
Log2 fold-change of gene expression: 1839: −4.2
Log2 fold-change of gene expression: 4247: 0.2
Log2 fold-change of gene expression: 5569: 4.6
Log2 fold-change of gene expression: 8131: −0.2
Log2 fold-change of gene expression: 9569: −1.7
Log2 fold-change of gene expression: 10988: 0.3
Log2 fold-change of gene expression: 23001: 0.3
Log2 fold-change of gene expression: 55332: 0.1
Log2 fold-change of gene expression: 57722: −0.1
Log2 fold-change of gene expression: 58488: 0.4
Log2 fold-change of gene expression: 90780: −2.4
Log2 fold-change of gene expression: 134265: −0.6
Log2 fold-change of gene expression: AKT1: −1.4
Log2 fold-change of gene expression: ANGPT1: 1.4
Log2 fold-change of gene expression: ANGPT2: 0.9
Log2 fold-change of gene expression: ANGPTL3: 3.6
Log2 fold-change of gene expression: ANGPTL4: 1.5
Log2 fold-change of gene expression: ANPEP: 0.2
Log2 fold-change of gene expression: ANTXR1: −1.4
Log2 fold-change of gene expression: APOE: 0.8
Log2 fold-change of gene expression: ARHGEF1: −0.8
Log2 fold-change of gene expression: Acvrl1: −1.9
Log2 fold-change of gene expression: Adcy4: −0.6
Log2 fold-change of gene expression: BAL1: 0.4
Log2 fold-change of gene expression: BMP1: −0.6
Log2 fold-change of gene expression: C1orf54: −6.1
Log2 fold-change of gene expression: CALD1: −0.6
Log2 fold-change of gene expression: CCL2: 3.6
Log2 fold-change of gene expression: CCL11: 0.0
Log2 fold-change of gene expression: CD248: 0.6
Log2 fold-change of gene expression: CDH5: −1.6
Log2 fold-change of gene expression: CENTD3: −1.0
Log2 fold-change of gene expression: CLIC1: 1.8
Log2 fold-change of gene expression: COL4A3: 3.2
Log2 fold-change of gene expression: COL18A1: 1.9
Log2 fold-change of gene expression: COMT: −1.7
Log2 fold-change of gene expression: CST4: 0.4
Log2 fold-change of gene expression: CTTNBP2NL: −1.0
Log2 fold-change of gene expression: CXCL3: 11.6
Log2 fold-change of gene expression: CXCL5: 10.2
Log2 fold-change of gene expression: CXCL6: 1.0
Log2 fold-change of gene expression: CXCL9: 0.5
Log2 fold-change of gene expression: CXCL10: 2.8
Log2 fold-change of gene expression: Calcr1: −2.9
Log2 fold-change of gene expression: Caskin2: −2.3
Log2 fold-change of gene expression: Ccbp2: 5.6
Log2 fold-change of gene expression: Cldn5: 0.4
Log2 fold-change of gene expression: DGKG: 6.1
Log2 fold-change of gene expression: DKK3: −2.7
Log2 fold-change of gene expression: DLL4: −4.1
Log2 fold-change of gene expression: DUT: −1.9
Log2 fold-change of gene expression: EFNA1: 7.8
Log2 fold-change of gene expression: EFNA3: 0.3
Log2 fold-change of gene expression: EFNB2: −6.6
Log2 fold-change of gene expression: EGF: 0.2
Log2 fold-change of gene expression: ENG: −0.7
Log2 fold-change of gene expression: EPHB4: 0.3
Log2 fold-change of gene expression: EREG: 9.3
Log2 fold-change of gene expression: ESAM1: −1.6
Log2 fold-change of gene expression: EXTL3: 0.4
Log2 fold-change of gene expression: Egf17: −2.3
Log2 fold-change of gene expression: Ehd4: −0.7
Log2 fold-change of gene expression: Entpd1: −5.6
Log2 fold-change of gene expression: Epas1: 1.5
Log2 fold-change of gene expression: EphB1: 0.6
Log2 fold-change of gene expression: Erg: −3.9
Log2 fold-change of gene expression: FGF1: 5.7
Log2 fold-change of gene expression: FGF2: 2.5
Log2 fold-change of gene expression: FGFR3: 1.2
Log2 fold-change of gene expression: FIGF: 0.2
Log2 fold-change of gene expression: FLT1: −0.7
Log2 fold-change of gene expression: Fgd5: −0.8
Log2 fold-change of gene expression: GPCR124: −4.6
Log2 fold-change of gene expression: GRRP1: 0.6
Log2 fold-change of gene expression: Grp116: −5.5
Log2 fold-change of gene expression: HAND2: 1.4
Log2 fold-change of gene expression: HGF: 1.5
Log2 fold-change of gene expression: HIF1A: 0.7
Log2 fold-change of gene expression: HPSE: 2.6
Log2 fold-change of gene expression: Hspa12b: −10.2
Log2 fold-change of gene expression: ID1: 1.5
Log2 fold-change of gene expression: ID3: 2.5
Log2 fold-change of gene expression: IFNA1: 1.1
Log2 fold-change of gene expression: IFNB1: 1.6
Log2 fold-change of gene expression: IFNG: 6.0
Log2 fold-change of gene expression: IGF1: −2.6
Log2 fold-change of gene expression: IL1B: 1.3
Log2 fold-change of gene expression: IL6: 9.4
Log2 fold-change of gene expression: IL8: 11.3
Log2 fold-change of gene expression: ITGAV: −0.9
Log2 fold-change of gene expression: ITGB3: −2.9
Log2 fold-change of gene expression: Icam1: 2.8
Log2 fold-change of gene expression: Icam2: 7.5
Log2 fold-change of gene expression: JAG1: 1.7
Log2 fold-change of gene expression: KDR: −0.5
Log2 fold-change of gene expression: Kifc1: −4.8
Log2 fold-change of gene expression: LAMAS5: −0.8
Log2 fold-change of gene expression: LECT1: −8.0
Log2 fold-change of gene expression: LEP: 0.8
Log2 fold-change of gene expression: Lasts2: 1.5
Log2 fold-change of gene expression: Lrrk1: 0.3
Log2 fold-change of gene expression: MDK: −1.0
Log2 fold-change of gene expression: MMP2: −0.1
Log2 fold-change of gene expression: MMP9: 4.3
Log2 fold-change of gene expression: MMP11: 0.1
Log2 fold-change of gene expression: MRC2: −0.6
Log2 fold-change of gene expression: Mmm2: −7.5
Log2 fold-change of gene expression: Myo1b: −3.0
Log2 fold-change of gene expression: NID1: −3.6
Log2 fold-change of gene expression: NM023516: 0.9
Log2 fold-change of gene expression: NRP1: −2.6
Log2 fold-change of gene expression: NRP2: −3.5
Log2 fold-change of gene expression: Notch4: −0.3
Log2 fold-change of gene expression: Npr3: 2.7
Log2 fold-change of gene expression: PALD: −1.3
Log2 fold-change of gene expression: PDCD2: −1.7
Log2 fold-change of gene expression: PDGFA: 1.1
Log2 fold-change of gene expression: PECAM1: −3.0
Log2 fold-change of gene expression: PGF: −7.2
Log2 fold-change of gene expression: PLAU: 3.8
Log2 fold-change of gene expression: PLG: −1.0
Log2 fold-change of gene expression: PNMT: −0.1
Log2 fold-change of gene expression: PROK2: 2.2
Log2 fold-change of gene expression: PTGS1: 2.9
Log2 fold-change of gene expression: PTPRCAP: 0.9
Log2 fold-change of gene expression: Pltp: 1.4
Log2 fold-change of gene expression: Ptprb: −0.1
Log2 fold-change of gene expression: Ptprm: 1.7
Log2 fold-change of gene expression: RAMP2: −5.9
Log2 fold-change of gene expression: RASD2: 0.5
Log2 fold-change of gene expression: Rasip1: −1.1
Log2 fold-change of gene expression: S1PR1: −0.3
Log2 fold-change of gene expression: SERPINF1: 6.5
Log2 fold-change of gene expression: SPHK1: 3.2
Log2 fold-change of gene expression: STAB1: 0.5
Log2 fold-change of gene expression: Sdc4: 4.0
Log2 fold-change of gene expression: Sdpr: 0.9
Log2 fold-change of gene expression: Slc43a3: 0.2
Log2 fold-change of gene expression: Slco2a1: −2.4
Log2 fold-change of gene expression: TEK: 1.6
Log2 fold-change of gene expression: TGFA: 8.7
Log2 fold-change of gene expression: TGFB1: 0.3
Log2 fold-change of gene expression: TGFB2: 1.3
Log2 fold-change of gene expression: TGFBR1: 1.1
Log2 fold-change of gene expression: THBS1: −0.1
Log2 fold-change of gene expression: THBS2: 2.6
Log2 fold-change of gene expression: THY1: −3.0
Log2 fold-change of gene expression: TIMP1: 2.5
Log2 fold-change of gene expression: TIMP2: 0.0
Log2 fold-change of gene expression: TIMP3: −0.6
Log2 fold-change of gene expression: TNF: 9.3
Log2 fold-change of gene expression: TNS1: −0.3
Log2 fold-change of gene expression: TNS3: −8.0
Log2 fold-change of gene expression: TRA2B: 0.6
Log2 fold-change of gene expression: TYMP: 0.1
Log2 fold-change of gene expression: VEGFA: 5.7
Log2 fold-change of gene expression: VEGFC: 1.9
Log2 fold-change of gene expression: VGLL4: 1.3
Log2 fold-change of gene expression: Vwf: −5.4
Log2 fold-change of gene expression: copa: −2.1
Log2 fold-change of gene expression: itbp4: −1.7
Log2 fold-change of gene expression: ralb: 0.7
Log2 fold-change of gene expression: stard9: 0.0
Log2 fold-change of gene expression: B2M (1st listing (r49)): 1.2
Log2 fold-change of gene expression: HPRT1 (1st listing (r50)): 0.6
Log2 fold-change of gene expression: RPL13A (1st listing (r51)): 1.2
Log2 fold-change of gene expression: GADPH (1st listing (r52)): −1.0
Log2 fold-change of gene expression: ACTB (1st listing (r53)): −2.5
Log2 fold-change of gene expression: PLXDC1 (1st listing (r74)): 2.3
Log2 fold-change of gene expression: TNFAIP2 (1st listing (r91)): 4.6
Log2 fold-change of gene expression: Robo4 (1st listing (r95)): −4.1
Log2 fold-change of gene expression: 151516 (1st listing (r134)): 0.5
Log2 fold-change of gene expression: TNFAIP2 (2nd listing (r92)): 4.7
Log2 fold-change of gene expression: B2M (2nd listing (r97)): 1.5
Log2 fold-change of gene expression: HPRT1 (2nd listing (r98)): −0.5
Log2 fold-change of gene expression: RPL13A (2nd listing (r99)): 0.7
Log2 fold-change of gene expression: GADPH (2nd listing (r100)): 0.0
Log2 fold-change of gene expression: ACTB (2nd listing (r101)): −2.2
Log2 fold-change of gene expression: PLXDC1 (2nd listing (r104)): −2.4
Log2 fold-change of gene expression: 151516 (2nd listing (r139)): 0.5
Log2 fold-change of gene expression: Robo4 (2nd listing (r188)): 0.3
Log2 fold-change of gene expression: B2M (3rd listing (r145)): 0.5
Log2 fold-change of gene expression: HPRT1 (3rd listing (r146)): 0.8
Log2 fold-change of gene expression: RPL13A (3rd listing (r147)): 0.0
Log2 fold-change of gene expression: GADPH (3rd listing (r148)): −1.7
Log2 fold-change of gene expression: ACTB (3rd listing (r149)): −2.2
Log2 fold-change of gene expression: B2M (4th listing (r193)): 0.8
Log2 fold-change of gene expression: HPRT1 (4th listing (r194)): 0.5
Log2 fold-change of gene expression: RPL13A (4th listing (r195)): 0.0
Log2 fold-change of gene expression: GADPH (4th listing (r196)): −2.1
Log2 fold-change of gene expression: ACTB (4th listing (r197)): 0.4
